Experimental data: patent US9464064B2, “HCV helicase inhibitors and methods of use thereof” (University of Kansas, priority 2011, dated 2016)

Biological target: T1, HCV NS3 helicase NS3h_1b(con1) (Hepatitis C virus genotype 1b, UniProt Q9WMX2)
T1 construct: truncated C-terminally His-tagged NS3 proteins lacking the N-terminal protease, called NS3h; His-tag (C); made in house
Assay: MBHA screen of NCI mechanistic set library at 20 μM (percent inhibition, compound interference)
Format: biochemical
Conditions: compounds at 20 μM; for Inh. (%) (Inhibition): calculated from Equation 1
In short: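 Molecular beacon-based DNA unwinding assay; compounds screened at 20 μM in triplicate, with DMSO-only negative and 500 nM dT20 positive controls. Fluorescence (ex 643/em 670 nm) was read before and 30 min after adding ATP to 1 mM. Percent inhibition came from the change relative to DMSO controls; interference from pre-ATP fluorescence versus DMSO controls.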

[1] = assay interference calculated with Equation 2 (fluorescence vs DMSO-only controls before ATP)
[2] = MBHA with DNA substrate, assay interference calculated with Equation 2

T1 sequence (Q9WMX2 1192-1657): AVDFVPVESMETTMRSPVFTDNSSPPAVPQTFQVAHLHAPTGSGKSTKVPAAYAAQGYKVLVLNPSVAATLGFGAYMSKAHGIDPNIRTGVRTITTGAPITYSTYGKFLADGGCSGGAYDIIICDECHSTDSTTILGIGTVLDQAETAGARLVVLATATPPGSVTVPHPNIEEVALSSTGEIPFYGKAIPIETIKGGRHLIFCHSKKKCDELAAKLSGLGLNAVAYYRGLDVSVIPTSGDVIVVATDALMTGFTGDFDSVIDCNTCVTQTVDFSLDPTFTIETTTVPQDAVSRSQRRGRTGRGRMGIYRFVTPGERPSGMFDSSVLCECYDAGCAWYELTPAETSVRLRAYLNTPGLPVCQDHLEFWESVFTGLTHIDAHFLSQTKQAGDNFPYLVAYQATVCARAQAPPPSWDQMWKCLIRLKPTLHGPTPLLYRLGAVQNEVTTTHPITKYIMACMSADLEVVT

Compound | Inh. (%) (Inhibition) (MBHA with a DNA substrate) | Int.* (Ratio) (Interference) [1] | Int.* (Ratio) (Interference) [2] | Inh. (%) (Inhibition) (MBHA with DNA substrate)
CC12CC(Br)(Br)C(=O)C3C1CCCC32 [Compound 624358] | −4.4 | 1.05 |  | 
Cc1[nH]c(=O)nc(N/N=C/c2ccc(Cl)cc2)c1C(=O)Nc1ccc(Cl)cc1 [Compound 624947] |  |  | 0.86 | −14.2
C=CCOC1OC(CO[Si](C)(C)C(C)(C)C)C(OCc2ccccc2)C(OCc2ccccc2)C1OCc1ccccc1 (stereo not shown) [Compound 624953] |  |  | 0.90 | −7.5
O=c1ncccn1C1OC(CO)C(O)C1F (stereo not shown) [Compound 625355] |  |  | 1.05 | −10.4
Fc1cccc(Cl)c1C1SCc2nc3ccccc3n21 (stereo not shown) [Compound 625483] | 12.0 | 0.93 |  | 
Fc1cccc(F)c1C1SCc2nc3ccccc3n21 (stereo not shown) [Compound 625487] |  |  | 1.01 | −0.1
COc1ccc2cccc(C(=N)c3ccc(C)c4c3CCC4)c2c1 [Compound 625590] |  |  | 0.95 | 14.3
Cc1ccccc1NC(=O)/C=N/O [Compound 625639] |  |  | 1.09 | −17.7
Cc1cc([N+](=O)[O-])ccc1Nc1cccc(Cl)c1C [Compound 625641] | −37.8 | 1.20 |  | 
C1CN(c2nnc(N3CCC3)nn2)C1 [Compound 625748] |  |  | 0.94 | −11.6
COc1ccccc1Cc1nc(-c2ccccc2)nn(C2OC(COC(C)=O)C(OC(C)=O)C(OC(C)=O)C2OC(C)=O)c1=S (stereo not shown) [Compound 625873] |  |  | 1.02 | −16.6
COC1OC(COCc2ccc(Cl)cc2)C(OCc2ccc(Cl)cc2)C1O (stereo not shown) [Compound 626120] |  |  | 0.97 | 15.1
O=Cc1cc([N+](=O)[O-])no1 [Compound 626433] |  |  | 0.98 | −2.2
CC(C)C(=O)OCN(C)c1nc(N(C)COC(=O)C(C)C)nc(N(C)COC(=O)C(C)C)n1 [Compound 626551] | −24.9 | 0.90 |  | 
COc1ccc(C2C(C)C(=O)C(C)C(c3ccc(OC)cc3)N2N=O)cc1 (stereo not shown) [Compound 626734] |  |  | 1.02 | −18.3
COc1ccc2c(c1)-c1nn(CCCN(C)C)c3ccc([N+](=O)[O-])c(c13)N2 [Compound 627168] |  |  | 0.53 | 64.3
O=[N+]([O-])c1cc(C(F)(F)F)cc2n[se]nc12 [Compound 627371] |  |  | 0.92 | −10.1
COc1cc2c3c(c1OC)-c1cc4c(cc1CC3(C#N)N(C(=O)c1ccccc1)CC2)OCO4 (stereo not shown) [Compound 627666] | −3.6 | 0.87 |  | 
Cc1ccc(S(=O)(=O)c2ccccc2[N+](=O)[O-])cc1 [Compound 627708] |  |  | 1.03 | −11.4
N#CC1(C#N)C2C=CC(c3coc4cccc2c34)C1(C#N)C#N (stereo not shown) [Compound 629301] |  |  | 0.91 | 0.8
O=C1c2ccccc2C(=O)c2nc(-c3ccccc3)c(-c3ccccc3)nc21 [Compound 629713] | −20.3 | 0.90 |  | 
O=C(NCCCCCCCCNC(=O)c1cccc2ccccc12)c1cccc2ccccc12 [Compound 629738] |  |  | 0.97 | 5.9
CC[C@@]1(O)C(=O)OCc2c1cc1n(c2=O)Cc2cc3c(N)cccc3nc2-1 [Compound 629971] | −20.4 | 0.96 |  | 
O=C(CCc1ccccc1)On1nnc2ccccc2c1=O [Compound 630374] |  |  | 0.89 | 1.3
Cn1cnc([N+](=O)[O-])c1Sc1nnnn1-c1ccccc1 [Compound 631152] |  |  | 0.94 | −7.3
Cn1cnc([N+](=O)[O-])c1Sc1nnc(-c2cccnc2)n1C [Compound 631160] | 9.9 | 0.91 |  | 
O=C1c2ccccc2C(=O)c2sc(Nc3ccc(Cl)c(Cl)c3)nc21 [Compound 631521] | −22.6 | 0.93 |  | 
O=C1c2ccccc2C(=O)c2sc(Nc3ccc(Cl)cc3)nc21 [Compound 631529] | −28.9 | 1.06 |  | 
N#CC1=C(N)Oc2c(ccc3cccnc23)C1c1ccccc1 (stereo not shown) [Compound 631583] |  |  | 0.98 | 5.1
